# According to patent US9968565B2, “Method for protection and improvement of liver health with meso-zeaxanthin compositions” (OMNIACTIVE HEALTH TECHNOLOGIES LIMITED, priority 2015, dated 2018):
# Tested on: HepG2 cells
# Assay: In vitro fatty liver model, lipid content in oleic acid-treated HepG2 hepatocytes (Adipored staining)
# Assay type: cell-based
# Conditions: HepG2, 1.5 mM Oleic Acid + 100 uM
# Procedure: HepG2 cells were seeded at a density of 5×10^4 cells/mL in 24 well plates and cultured to 100% confluency. Once 100% confluent, HepG2 Growth Media (ATCC-formulated Eagle's Minimum Essential Media (EMEM) 500 mL+10% FBS-50 mL+1% pen/strep antibiotic-5 mL) was […] fetal bovine serum (FBS) Free Growth Media (1 mL per well) for 24 hours. Following 24 hour FBS-free conditions, cells were treated with differing concentrations of Oleic Acid (0.5, 1.0, 1.5, 2.0 mM; Sigma O3008) to induce fatty liver conditions. From preliminary Adipored Staining data, 1.5 mM Oleic Acid (OA) was deemed the most appropriate concentration of OA to induce maximum steatosis (accumulation of large vacuoles of triglyceride fat in liver cells—thus it is abnormal retention of lipids within a cell) while remaining non-cytotoxic.
smiles,measurement,value
C[C@@H]1O[C@@H](OC[C@H]2O[C@@H](Oc3c(-c4ccc(O)c(O)c4)oc4cc(O)cc(O)c4c3=O)[C@H](O)[C@@H](O)[C@@H]2O)[C@H](O)[C@H](O)[C@H]1O [Rutin],% Decrease in Lipid Content,22%
same,Lipid Content,23088.67
